{
  "source": "patent US20170234881A1",
  "about": "“METHODS OF DIAGNOSING AND TREATING CANCER” (INSERM ( INSTITUT NATIONAL DE LA SANTÉ ET DE LA RECHERCHE …, priority 2014, published 2017)",
  "key": {"MCF7 tumors": {"tested_on": "MCF7 tumors", "experiment": "Growth of MCF7 tumors implanted s.c. into mice", "format": "in vivo", "method": "(§1) FIG. 2. OCDO is a tumor promoter in vitro and in vivo and its inhibition contributes to the anti-tumor effects of Tam and DDA. (A, B) Histograms representing the effect of OCDO or 17β-estrogen (E2) on MCF7 (A) and TS/A (B) cell proliferation after 24 h treatment using a colorimetric immunoassay measuring BrDU incorporation in DNA (C, D) Histogram representing the effect of OCDO on MCF7 (C) and TS/A (D) cell invasion. Data are the mean of three separate experiments (±s.e.m), *P<0.05, **P<0.01, ***P<0.001 (Student's t-test). (E, F) Mice were implanted s.c. with MCF7 (E) or TS/A (F) cells and animals (8 per group) were treated s.c. every day starting on the day of implantation with either the solvent vehicle or OCDO (16 μg/kg for MCF7 or 50 μg/kg for TS/A). Animals were monitored for tumour growth twice a week. […] (G) Mean (±s.e.m) of Ki67 positive cell number determined from IHC staining of MCF7 tumor sections from (E), n=8, *P<0.05 (Student's t-test) using HistoQuant, Pannoramic Viewer (3DHistech). […]\n(§2) Exponentially growing MCF7, ShMCF7, E0771, MDA-MB231, MDA-MB468 and TS/A cells were collected, washed twice in PBS and resuspended in PBS. […] Animals were examined daily, and body weights were measured twice per week. In all the experiments, the tumor volume was determined by direct measurement with a caliper and was calculated using the formula (width^2×length)/2. […]"}, "MCF7 cells": {"tested_on": "MCF7 cells", "experiment": "Cell proliferation assay (BrDU incorporation), MCF7", "format": "cell-based, human", "settings": "MCF7 cells treated 24 h, concentration-dependent, level reached", "method": "(§3) FIG. 2. OCDO is a tumor promoter in vitro and in vivo and its inhibition contributes to the anti-tumor effects of Tam and DDA. (A, B) Histograms representing the effect of OCDO or 17β-estrogen (E2) on MCF7 (A) and TS/A (B) cell proliferation after 24 h treatment using a colorimetric immunoassay measuring BrDU incorporation in DNA (C, D) Histogram representing the effect of OCDO on MCF7 (C) and TS/A (D) cell invasion. Data are the mean of three separate experiments (±[…]) Mice were implanted s.c. with MCF7 (E) or TS/A (F) cells and animals (8 per group) were treated s.c. every day starting on the day of implantation with either the solvent vehicle or OCDO (16 μg/kg for MCF7 or 50 μg/kg for TS/A). Animals were monitored for tumour growth twice a week. The data are representative of three independent experiments. The mean tumor volume±s.e.m is shown, *P<0.05, **P<0.01, ***P<0.001 (analysis of variance (ANOVA), Dunnett's post test). […] (I, J, K). Murine […], or human MDA-MB231 (J) or MDA-MB468 (K) cells implanted s.c. into mice (8 per group) and animals were treated s.c. with either the solvent vehicle or OCDO (16 μg/kg for MDA-MB-231 and MDA-MB-468 or 50 μg/kg for E0771). […] At the end of this time, cells were incubated with BrDU for an additional 8 h and then evaluated for proliferation using the ELISA kit, Roche Diagnostic, as indicated by the manufacturer."}, "E0771 cells": {"tested_on": "E0771 cells", "experiment": "Growth of E0771 tumors implanted s.c. into mice", "format": "in vivo", "settings": "mouse E0771 tumors, OCDO 50 μg/kg s.c.", "method": "as §1, §2"}, "TS/A cells": {"tested_on": "TS/A cells", "experiment": "Cell proliferation assay (BrDU incorporation), TS/A", "format": "cell-based, mouse", "settings": "TS/A cells treated 24 h, concentration-dependent, level reached", "method": "as §3"}, "MDA-MB231 cells": {"tested_on": "MDA-MB231 cells", "experiment": "Growth of MDA-MB231 tumors implanted s.c. into mice", "format": "in vivo", "settings": "human MDA-MB231 tumors, OCDO 16 μg/kg s.c.", "method": "as §1, §2"}},
  "data": [
    {"smiles": "CC(C)CCC[C@@H](C)[C@H]1CC[C@H]2[C@@H]3CC(=O)[C@@]4(O)C[C@@H](O)CC[C@]4(C)[C@H]3CC[C@]12C", "note": "[OCDO, 6-oxo-cholestan-3β,5α-diol]", "values": [
      {"measurement": "tumor growth compared with the control group", "setting": "MCF7 tumors; MCF7 tumors in immunodeficient mice, OCDO 16 μg/kg s.c. every day", "result": "significantly increased"},
      {"measurement": "proliferative marker Ki67 in tumors compared with control-treated tumors", "setting": "MCF7 tumors; MCF7 tumors, IHC", "result": "increased"},
      {"measurement": "growth rate (cell proliferation) relative to the control", "setting": "MCF7 cells", "result": 1.3, "unit": "fold"},
      {"measurement": "tumor growth", "setting": "E0771 cells", "result": "stimulates the growth"},
      {"measurement": "growth rate (cell proliferation) relative to the control", "setting": "TS/A cells", "result": 1.7, "unit": "fold"},
      {"measurement": "tumor growth", "setting": "MDA-MB231 cells", "result": "stimulates the growth"}
    ]}
  ]
}
